From US20100160454A1, “ANTIMICROBIAL AGENTS, COMPOSITIONS AND PRODUCTS CONTAINING THE SAME, AND METHODS OF USING THE COMPOSITIONS AND PRODUCTS” (Eastman Chemical Company, priority 2008, published 2010)

How the values were obtained:
Assay in all cases: Microbiological challenge testing in BPW broth, graded subculture counts
Format in all cases: cell-based
[1] = tested on: Aspergillus niger Wild type; settings: A. niger
Protocol: The microorganisms in the table below were used in challenge tests. They were either ATCC (American Type Culture Collection) or “wild type” as indicated. Wild type organisms were problematic organisms previously isolated from chemical products.
All of the microorganisms were grown in Tryptose Soy Broth (TSB), DIFCO™ available from Becton, Dickinson and Company, containing 1% dextrose. Candida albicans and Aspergillus niger, were incubated at 22° C.+/−2° C. for at least 96 hours. All bacteria were incubated at 35° C.+/−2° C. in a humidified incubator for at least 96 hours.
Candida albicans and Aspergillus niger were also grown on Sabouraud Dextrose Agar (SABD) at 22° C. for 7 to 14 days or until full sporulation was achieved.
The following procedure was followed to determine the amount of each challenge material (inoculum broth) needed to produce a 10^8 CFU/mL challenge, which is equivalent to a final test-sample microbial concentration of 10^5 to 10^6 CFU/mL (CFU=colony forming units).
Using a sterile pipette, 1 mL of the growth from each TSB culture was transferred into tubes of 9 mL buffered water (pH 7.2 phosphate buffer) and mixed thoroughly. This was repeated to make serial 1:10 dilutions. Then, 0.1 mL of each sample and dilution was inoculated onto agar plates to produce the equivalent of a further 1:10 dilution. (C. albicans and A. niger were inoculated onto SABD and bacteria were inoculated onto Plate Count Agar (PCA), DIFCO™ available from Becton, Dickinson and Company.) (The normal volume plated for most samples was 0.1 mL. Some samples that could be very low in micro-organisms (high dilutions) were plated using 0.5 mL of inoculum, in order to produce reproducible counts.) The samples were distributed on the plates using the spread-plate technique. The spread-plate technique is carried out by spreading the sample over the entire plate surface using a sterile spreading rod while rotating the plate with a rotary auto-plater. After the inoculum was absorbed completely by the agar, each plate was inverted and incubated (fungi at 22° C.+/−2° C. and bacteria at 35° C.+/−2° C.).
After incubation for at least 48 hours, colonies that had developed on the agar plates were counted (CFU) and recorded with the corresponding dilution. If counting had to be delayed temporarily, plates were refrigerated, preferably no more than 24 hours, until they could be counted. The number of CFU/mL was determined by multiplying the plate count by the dilution factor of the plate counted.
Turbidity in Nepholemetric Turbidity Units (NTU) was measured for each serial dilution using the HF-Micro 100 Model Turbidimeter. For each microorganism, the plate counts were compared to the turbidity readings.
Aspergillus niger cultures were harvested and spores dislodged from the SABD on which they were grown by rubbing the growth gently with a sterile inoculating loop. The spores were then mixed into the broth culture that had been incubated with a sterile magnetic stir bar to reduce pellicle formation. The spore-culture mixture was filtered repeatedly through sterile, nonabsorbent cotton and harvested repeatedly, adjusting vegetative cells and spores to a level of 1.0×10^8. A hemocytometer was used to verify the final challenge concentration.
Control substrates (“broth alone”) were prepared for each microorganism separately in triplicate by adding 13.5 mL of Buffered Peptone Water broth (BPW) containing 1% dextrose to each 20-mL glass tube, then adding 1.5 mL challenge material to produce a final concentration at time zero of 10^5 to 10^6 CFU/mL and a total volume of 15 mL.

[2] = tested on: Bacillus subtilis Wild type
Method in brief: (§1)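 Challenge substrates of BPW plus 1% dextrose containing the test material (w/v) or broth alone were inoculated to 10^5–10^6 CFU/mL. Bacteria had been precultured in dextrose TSB at 35 °C for at least 96 h. CFU/mL came from plate count × dilution factor on PCA after ≥48 h at 35 °C.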

[3] = tested on: Proteus vulgaris Wild type
Method in brief: as §1

Compound | Grade ([1]; 0.5% (wt/vol), 3 day) | Grade ([1]; 0.5% (wt/vol), 13 day) | Grade ([1]; 0.5% (wt/vol), 30 day) | Grade ([1]; 1.25% (wt/vol), 3 day) | Grade ([1]; 1.25% (wt/vol), 13 day) | Grade ([1]; 1.25% (wt/vol), 30 day) | Grade ([1]; 2.5% (wt/vol), 3 day) | Grade ([1]; 2.5% (wt/vol), 13 day) | Grade ([1]; 2.5% (wt/vol), 30 day) | Grade ([1]; 5.0% (wt/vol), 3 day) | Grade ([1]; 5.0% (wt/vol), 13 day) | Grade ([1]; 5.0% (wt/vol), 30 day) | B. subtillis growth grade, 3 day ([2]; 0.5% weight/volume) | B. subtillis growth grade, 14 day ([2]; 0.5% weight/volume) | B. subtillis growth grade, 30 day ([2]; 0.5% weight/volume) | B. subtillis growth grade, 3 day ([2]; 1.25% weight/volume) | B. subtillis growth grade, 14 day ([2]; 1.25% weight/volume) | B. subtillis growth grade, 30 day ([2]; 1.25% weight/volume) | B. subtillis growth grade, 3 day ([2]; 2.5% weight/volume) | B. subtillis growth grade, 14 day ([2]; 2.5% weight/volume) | further results
CC(O)CO (stereo not drawn) [PG, propylene glycol] | 5 | 5 | 5 | 5 | 5 | 5 | 4 | 5 | 5 | 4 | 4 | 4 | 5 (More than 10,000 colonies estimated (thus more than 100,000 CFU/mL)) | 5 (More than 10,000 colonies estimated (thus more than 100,000 CFU/mL)) | 5 (More than 10,000 colonies estimated (thus more than 100,000 CFU/mL)) | 5 (More than 10,000 colonies estimated (thus more than 100,000 CFU/mL)) | 4 (1000 to 10,000 colonies countable (thus 10,000 CFU/mL to 100,000 CFU/mL)) | 4 (1000 to 10,000 colonies countable (thus 10,000 CFU/mL to 100,000 CFU/mL)) | 5 (More than 10,000 colonies estimated (thus more than 100,000 CFU/mL)) | 4 (1000 to 10,000 colonies countable (thus 10,000 CFU/mL to 100,000 CFU/mL)) | B. subtillis growth grade, 30 day ([2]; 2.5% weight/volume): 4 (1000 to 10,000 colonies countable (thus 10,000 CFU/mL to 100,000 CFU/mL)); B. subtillis growth grade, 3 day ([2]; 5.0% weight/volume): 5 (More than 10,000 colonies estimated (thus more than 100,000 CFU/mL)); B. subtillis growth grade, 14 day ([2]; 5.0% weight/volume): 4 (1000 to 10,000 colonies countable (thus 10,000 CFU/mL to 100,000 CFU/mL)); B. subtillis growth grade, 30 day ([2]; 5.0% weight/volume): 4 (1000 to 10,000 colonies countable (thus 10,000 CFU/mL to 100,000 CFU/mL)); P. vulgaris growth grade, 3 day ([3]; 0.5% weight/volume): 4 (1000 to 10,000 colonies countable (thus 10,000 CFU/mL to 100,000 CFU/mL)); P. vulgaris growth grade, 13 day ([3]; 0.5% weight/volume): 4 (1000 to 10,000 colonies countable (thus 10,000 CFU/mL to 100,000 CFU/mL)); P. vulgaris growth grade, 30 day ([3]; 0.5% weight/volume): 4 (1000 to 10,000 colonies countable (thus 10,000 CFU/mL to 100,000 CFU/mL)); P. vulgaris growth grade, 3 day ([3]; 1.25% weight/volume): 4 (1000 to 10,000 colonies countable (thus 10,000 CFU/mL to 100,000 CFU/mL)); P. vulgaris growth grade, 13 day ([3]; 1.25% weight/volume): 4 (1000 to 10,000 colonies countable (thus 10,000 CFU/mL to 100,000 CFU/mL)); P. vulgaris growth grade, 30 day ([3]; 1.25% weight/volume): 4 (1000 to 10,000 colonies countable (thus 10,000 CFU/mL to 100,000 CFU/mL)); P. vulgaris growth grade, 3 day ([3]; 2.5% weight/volume): 4 (1000 to 10,000 colonies countable (thus 10,000 CFU/mL to 100,000 CFU/mL)); P. vulgaris growth grade, 13 day ([3]; 2.5% weight/volume): 4 (1000 to 10,000 colonies countable (thus 10,000 CFU/mL to 100,000 CFU/mL)); P. vulgaris growth grade, 30 day ([3]; 2.5% weight/volume): 4 (1000 to 10,000 colonies countable (thus 10,000 CFU/mL to 100,000 CFU/mL)); P. vulgaris growth grade, 3 day ([3]; 5.0% weight/volume): 4 (1000 to 10,000 colonies countable (thus 10,000 CFU/mL to 100,000 CFU/mL)); P. vulgaris growth grade, 13 day ([3]; 5.0% weight/volume): 4 (1000 to 10,000 colonies countable (thus 10,000 CFU/mL to 100,000 CFU/mL)); P. vulgaris growth grade, 30 day ([3]; 5.0% weight/volume): 4 (1000 to 10,000 colonies countable (thus 10,000 CFU/mL to 100,000 CFU/mL))
CC1(C)C(O)C(C)(C)C1O (stereo not drawn) [TMCBD, 2,2,4,4-tetramethyl-1,3-cyclobutanediol] | 5 | 5 | 5 | 4 | 4 | 4 | 3 | 2 (Countable (10 to 100 colonies)) | 3 | 2 (Countable (10 to 100 colonies)) | 0 | 0 | 4 (1000 to 10,000 colonies countable (thus 10,000 CFU/mL to 100,000 CFU/mL)) | 4 (1000 to 10,000 colonies countable (thus 10,000 CFU/mL to 100,000 CFU/mL)) | 4 (1000 to 10,000 colonies countable (thus 10,000 CFU/mL to 100,000 CFU/mL)) | 4 (1000 to 10,000 colonies countable (thus 10,000 CFU/mL to 100,000 CFU/mL)) | 4 (1000 to 10,000 colonies countable (thus 10,000 CFU/mL to 100,000 CFU/mL)) | 4 (1000 to 10,000 colonies countable (thus 10,000 CFU/mL to 100,000 CFU/mL)) | 4 (1000 to 10,000 colonies countable (thus 10,000 CFU/mL to 100,000 CFU/mL)) | 4 (1000 to 10,000 colonies countable (thus 10,000 CFU/mL to 100,000 CFU/mL)) | B. subtillis growth grade, 30 day ([2]; 2.5% weight/volume): 4 (1000 to 10,000 colonies countable (thus 10,000 CFU/mL to 100,000 CFU/mL)); B. subtillis growth grade, 3 day ([2]; 5.0% weight/volume): 4 (1000 to 10,000 colonies countable (thus 10,000 CFU/mL to 100,000 CFU/mL)); B. subtillis growth grade, 14 day ([2]; 5.0% weight/volume): 2 (52 to 100 colonies counted (thus 520 to 1000 CFU/mL)); B. subtillis growth grade, 30 day ([2]; 5.0% weight/volume): 0; P. vulgaris growth grade, 3 day ([3]; 0.5% weight/volume): 4 (1000 to 10,000 colonies countable (thus 10,000 CFU/mL to 100,000 CFU/mL)); P. vulgaris growth grade, 13 day ([3]; 0.5% weight/volume): 4 (1000 to 10,000 colonies countable (thus 10,000 CFU/mL to 100,000 CFU/mL)); P. vulgaris growth grade, 30 day ([3]; 0.5% weight/volume): 4 (1000 to 10,000 colonies countable (thus 10,000 CFU/mL to 100,000 CFU/mL)); P. vulgaris growth grade, 3 day ([3]; 1.25% weight/volume): 3 (100 to 1000 colonies (thus 1000 to 10,000 CFU/mL)); P. vulgaris growth grade, 13 day ([3]; 1.25% weight/volume): 2 (52 to 100 colonies counted (thus 520 to 1000 CFU/mL)); P. vulgaris growth grade, 30 day ([3]; 1.25% weight/volume): 0; P. vulgaris growth grade, 3 day ([3]; 2.5% weight/volume): 4 (1000 to 10,000 colonies countable (thus 10,000 CFU/mL to 100,000 CFU/mL)); P. vulgaris growth grade, 13 day ([3]; 2.5% weight/volume): 1 (0 to 51 colonies counted (thus 10 to 510 CFU/mL based on 0.1-mL sample)); P. vulgaris growth grade, 30 day ([3]; 2.5% weight/volume): 0; P. vulgaris growth grade, 3 day ([3]; 5.0% weight/volume): 0; P. vulgaris growth grade, 13 day ([3]; 5.0% weight/volume): 0; P. vulgaris growth grade, 30 day ([3]; 5.0% weight/volume): 0
